Measurements reported in ChEMBL document CHEMBL1201862, “PubChem BioAssay data set” (2004).
Calls of active or inactive are those of the source.

Tests used:
Type in all cases: functional
[1] = biological target: Phosphorylase b kinase gamma catalytic chain, liver/testis isoform (Homo sapiens, UniProt P15735);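 also: PHKG2 measured as one member of a kinome-wide kinase panel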
[2] = biological target: Serine/threonine-protein kinase PLK3 (Homo sapiens, UniProt Q9H4B4)
[3] = biological target: 5'-AMP-activated protein kinase catalytic subunit alpha-1 (Homo sapiens, UniProt Q13131)
[4] = biological target: Protein kinase C delta type (Homo sapiens, UniProt Q05655)
[5] = biological target: Proto-oncogene tyrosine-protein kinase receptor Ret (Homo sapiens, UniProt P07949);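 also: measured within a kinome-wide profiling panel, RET as the panel member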
[6] = biological target: Serine/threonine-protein kinase D2 (Homo sapiens, UniProt Q9BZL6);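 also: measured against PRKD2 as one member of a kinome-wide kinase profiling panel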
[7] = biological target: Serine/threonine-protein kinase 17A (Homo sapiens, UniProt Q9UEE5)
[8] = biological target: Tyrosine-protein kinase Lck (Homo sapiens, UniProt P06239);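 also: lck was assayed as one member of a kinase panel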
SRSF protein kinase 1 = SRSF protein kinase 1 (Homo sapiens, UniProt Q96SB4);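 also: measured as one member of a kinome-wide kinase profiling panel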
[9] = biological target: Mitogen-activated protein kinase 8 (Homo sapiens, UniProt P45983);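 also: value comes from one member of a kinome-wide kinase profiling panel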
[10] = biological target: Mast/stem cell growth factor receptor Kit (Homo sapiens, UniProt P10721);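 also: KIT entry within a kinase panel assay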
[11] = biological target: Serine/threonine-protein kinase PAK 4 (Homo sapiens, UniProt O96013);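 also: value obtained within a kinome profiling panel in which PAK4 was one of the panel members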
[12] = biological target: Calcium/calmodulin-dependent protein kinase type II subunit delta (Homo sapiens, UniProt Q13557)
[13] = biological target: Fibroblast growth factor receptor 1 (Homo sapiens, UniProt P11362)
[14] = biological target: Serine/threonine-protein kinase N2 (Homo sapiens, UniProt Q16513)
[15] = biological target: Serine/threonine-protein kinase TAO1 (Homo sapiens, UniProt Q7L7X3)
[16] = biological target: Homeodomain-interacting protein kinase 2 (Homo sapiens, UniProt Q9H2X6);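 also: measured within a kinome-wide kinase profiling panel, HIPK2 being one panel member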
[17] = biological target: High affinity nerve growth factor receptor (Homo sapiens, UniProt P04629);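 also: NTRK1 tested as one member of a kinome-wide profiling panel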
[18] = biological target: Serine/threonine-protein kinase pim-3 (Homo sapiens, UniProt Q86V86);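 also: value obtained as one member of a broad kinase panel profiling effort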
[19] = biological target: Non-receptor tyrosine-protein kinase TYK2 (Homo sapiens, UniProt P29597)
[20] = biological target: Protein kinase C gamma type (Homo sapiens, UniProt P05129)
[21] = biological target: Tyrosine-protein kinase Srms (Homo sapiens, UniProt Q9H3Y6);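 also: SRMS measured as one member of a kinome-wide kinase profiling panel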
[22] = biological target: Glycogen synthase kinase-3 alpha (Homo sapiens, UniProt P49840);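 also: GSK3A result taken from a broad kinome-wide kinase panel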
[23] = biological target: Mitogen-activated protein kinase kinase kinase kinase 2 (Homo sapiens, UniProt Q12851);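 also: measured as one member of a kinome-wide kinase panel, with MAP4K2 as the panel entry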
[24] = biological target: Hepatocyte growth factor receptor (Homo sapiens, UniProt P08581);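 also: kinase panel profiling across the kinome, with MET as the panel member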
[25] = biological target: Receptor tyrosine-protein kinase erbB-2 (Homo sapiens, UniProt P04626); experiment: Navigating the Kinome. Panel member name: ERBB2
[26] = biological target: Calcium/calmodulin-dependent protein kinase type II subunit beta (Homo sapiens, UniProt Q13554)
Ephrin type-A receptor 2 = Ephrin type-A receptor 2 (Homo sapiens, UniProt P29317);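 also: EPHA2 tested as one member of a kinome-wide kinase panel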
[27] = biological target: Insulin-like growth factor 1 receptor (Homo sapiens, UniProt P08069); experiment: Navigating the Kinome. Panel member name: IGF1R
Misshapen-like kinase 1 = Misshapen-like kinase 1 (Homo sapiens, UniProt Q8N4C8);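 also: kinome panel screen with MINK as the panel member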
[28] = biological target: Serine/threonine-protein kinase Nek4 (Homo sapiens, UniProt P51957)
[29] = biological target: Protein kinase C iota type (Homo sapiens, UniProt P41743);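 also: measured within a kinome-wide kinase panel, PRKCI as panel member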
[30] = biological target: cAMP-dependent protein kinase catalytic subunit PRKX (Homo sapiens, UniProt P51817)
Aurora kinase B = Aurora kinase B (Homo sapiens, UniProt Q96GD4)
[31] = biological target: Interleukin-1 receptor-associated kinase 4 (Homo sapiens, UniProt Q9NWZ3)
[32] = biological target: RAC-alpha serine/threonine-protein kinase (Homo sapiens, UniProt P31749);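 also: AKT1 affinity measured as one member of a kinome-wide kinase profiling panel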
[33] = biological target: Mitogen-activated protein kinase kinase kinase kinase 5 (Homo sapiens, UniProt Q9Y4K4);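 also: measured as one member of a kinome-spanning kinase panel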
[34] = biological target: Rho-associated protein kinase 1 (Homo sapiens, UniProt Q13464);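 also: measured within a broad kinome-wide panel profiling many kinases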
[35] = biological target: Tyrosine-protein kinase Fyn (Homo sapiens, UniProt P06241)
[36] = biological target: Serine/threonine-protein kinase pim-2 (Homo sapiens, UniProt Q9P1W9);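 also: value comes from a broad kinase panel profiling study in which PIM2 was one of the panel members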
[37] = biological target: Serine/threonine-protein kinase PLK1 (Homo sapiens, UniProt P53350);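 also: PLK1 measured as one member of a kinome-wide profiling panel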
[38] = biological target: Cyclin-dependent kinase 9 (Homo sapiens, UniProt P50750);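 also: value from the CDK9 entry of a kinome-spanning kinase panel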
[39] = biological target: cAMP-dependent protein kinase catalytic subunit alpha (Homo sapiens, UniProt P17612)
[40] = biological target: Dual specificity protein kinase CLK4 (Homo sapiens, UniProt Q9HAZ1)
[41] = biological target: Mitogen-activated protein kinase kinase kinase kinase 4 (Homo sapiens, UniProt O95819)
[42] = biological target: Serine/threonine-protein kinase MRCK alpha (Homo sapiens, UniProt Q5VT25)
[43] = biological target: Dual specificity tyrosine-phosphorylation-regulated kinase 1A (Homo sapiens, UniProt Q13627);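 also: measured against DYRK1A as one member of a broad kinome profiling panel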

Sequence of Serine/threonine-protein kinase PLK1 (P53350 whole entry): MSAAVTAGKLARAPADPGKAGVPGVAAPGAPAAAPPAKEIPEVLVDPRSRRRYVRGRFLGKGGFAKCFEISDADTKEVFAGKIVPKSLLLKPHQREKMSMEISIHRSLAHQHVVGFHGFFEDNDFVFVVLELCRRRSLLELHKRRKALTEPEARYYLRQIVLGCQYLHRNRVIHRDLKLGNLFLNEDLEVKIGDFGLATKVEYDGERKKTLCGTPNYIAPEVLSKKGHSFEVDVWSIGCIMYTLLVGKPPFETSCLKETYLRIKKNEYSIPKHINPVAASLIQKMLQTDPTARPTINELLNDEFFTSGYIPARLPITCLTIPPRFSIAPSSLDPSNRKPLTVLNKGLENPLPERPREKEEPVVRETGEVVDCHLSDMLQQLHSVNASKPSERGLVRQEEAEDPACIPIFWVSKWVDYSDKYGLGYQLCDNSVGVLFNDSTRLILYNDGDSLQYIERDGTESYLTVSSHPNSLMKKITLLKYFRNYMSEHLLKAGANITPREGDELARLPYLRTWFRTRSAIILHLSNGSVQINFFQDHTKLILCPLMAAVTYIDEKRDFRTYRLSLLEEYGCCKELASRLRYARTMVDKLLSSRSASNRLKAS
Sequence of Serine/threonine-protein kinase PAK 4 (O96013 whole entry): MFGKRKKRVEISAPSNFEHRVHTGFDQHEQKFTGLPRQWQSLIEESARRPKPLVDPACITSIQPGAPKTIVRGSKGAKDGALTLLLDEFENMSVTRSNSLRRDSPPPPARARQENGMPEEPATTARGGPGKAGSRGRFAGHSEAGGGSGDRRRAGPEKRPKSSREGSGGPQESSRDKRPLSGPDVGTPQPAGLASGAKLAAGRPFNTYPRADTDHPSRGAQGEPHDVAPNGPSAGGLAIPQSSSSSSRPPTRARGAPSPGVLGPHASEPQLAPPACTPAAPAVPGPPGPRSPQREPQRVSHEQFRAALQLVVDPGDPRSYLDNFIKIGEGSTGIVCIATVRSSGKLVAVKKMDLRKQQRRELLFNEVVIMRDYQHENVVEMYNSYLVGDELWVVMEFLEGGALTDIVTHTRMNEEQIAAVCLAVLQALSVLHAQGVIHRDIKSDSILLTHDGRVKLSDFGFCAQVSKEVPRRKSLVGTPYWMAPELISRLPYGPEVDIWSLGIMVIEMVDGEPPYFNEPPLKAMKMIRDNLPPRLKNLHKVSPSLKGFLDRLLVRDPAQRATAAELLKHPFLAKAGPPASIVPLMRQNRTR
Sequence of Dual specificity protein kinase CLK4 (Q9HAZ1 whole entry): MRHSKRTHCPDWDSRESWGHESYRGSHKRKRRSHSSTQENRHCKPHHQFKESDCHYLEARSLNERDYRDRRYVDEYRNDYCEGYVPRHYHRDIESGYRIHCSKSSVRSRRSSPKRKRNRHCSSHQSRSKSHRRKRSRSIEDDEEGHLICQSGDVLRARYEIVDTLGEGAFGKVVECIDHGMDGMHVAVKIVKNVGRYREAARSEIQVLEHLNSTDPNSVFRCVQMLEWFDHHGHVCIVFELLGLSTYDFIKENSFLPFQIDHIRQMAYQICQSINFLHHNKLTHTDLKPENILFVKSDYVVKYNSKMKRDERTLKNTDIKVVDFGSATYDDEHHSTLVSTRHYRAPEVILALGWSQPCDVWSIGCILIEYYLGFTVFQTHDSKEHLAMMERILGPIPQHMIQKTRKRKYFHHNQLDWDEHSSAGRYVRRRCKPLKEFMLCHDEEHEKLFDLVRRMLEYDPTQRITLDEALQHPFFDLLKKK
Sequence of Serine/threonine-protein kinase Nek4 (P51957 whole entry): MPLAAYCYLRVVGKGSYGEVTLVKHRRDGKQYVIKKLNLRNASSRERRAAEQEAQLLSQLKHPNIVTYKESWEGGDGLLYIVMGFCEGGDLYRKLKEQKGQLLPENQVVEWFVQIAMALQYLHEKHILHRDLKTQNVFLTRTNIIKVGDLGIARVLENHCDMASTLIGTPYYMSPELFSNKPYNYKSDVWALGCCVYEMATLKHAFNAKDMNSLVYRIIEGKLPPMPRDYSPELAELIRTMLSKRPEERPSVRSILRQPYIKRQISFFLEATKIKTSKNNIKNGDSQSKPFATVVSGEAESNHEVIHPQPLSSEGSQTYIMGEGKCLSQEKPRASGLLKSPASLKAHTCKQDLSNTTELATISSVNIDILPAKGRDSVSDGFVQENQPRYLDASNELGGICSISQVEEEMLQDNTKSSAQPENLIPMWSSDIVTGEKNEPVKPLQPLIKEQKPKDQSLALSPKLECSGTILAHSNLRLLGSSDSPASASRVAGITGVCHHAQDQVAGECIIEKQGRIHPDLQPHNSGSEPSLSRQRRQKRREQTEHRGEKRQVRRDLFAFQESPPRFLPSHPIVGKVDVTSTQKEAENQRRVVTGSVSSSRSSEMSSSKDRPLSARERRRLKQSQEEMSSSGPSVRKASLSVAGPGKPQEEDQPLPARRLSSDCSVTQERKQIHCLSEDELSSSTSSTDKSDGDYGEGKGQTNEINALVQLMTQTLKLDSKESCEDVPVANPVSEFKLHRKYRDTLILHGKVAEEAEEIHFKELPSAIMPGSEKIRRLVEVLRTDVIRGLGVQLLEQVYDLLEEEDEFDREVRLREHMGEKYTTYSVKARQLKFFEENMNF
Sequence of Serine/threonine-protein kinase pim-2 (Q9P1W9 whole entry): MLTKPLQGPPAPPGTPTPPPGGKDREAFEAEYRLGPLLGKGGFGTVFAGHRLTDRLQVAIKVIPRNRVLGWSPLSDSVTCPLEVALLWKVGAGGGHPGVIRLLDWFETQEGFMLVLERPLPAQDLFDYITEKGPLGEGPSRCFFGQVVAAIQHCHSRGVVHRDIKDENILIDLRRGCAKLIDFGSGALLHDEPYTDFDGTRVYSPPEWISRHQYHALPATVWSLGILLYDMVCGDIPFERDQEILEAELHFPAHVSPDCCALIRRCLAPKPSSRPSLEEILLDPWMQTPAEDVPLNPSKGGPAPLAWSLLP
Sequence of Hepatocyte growth factor receptor (P08581 whole entry): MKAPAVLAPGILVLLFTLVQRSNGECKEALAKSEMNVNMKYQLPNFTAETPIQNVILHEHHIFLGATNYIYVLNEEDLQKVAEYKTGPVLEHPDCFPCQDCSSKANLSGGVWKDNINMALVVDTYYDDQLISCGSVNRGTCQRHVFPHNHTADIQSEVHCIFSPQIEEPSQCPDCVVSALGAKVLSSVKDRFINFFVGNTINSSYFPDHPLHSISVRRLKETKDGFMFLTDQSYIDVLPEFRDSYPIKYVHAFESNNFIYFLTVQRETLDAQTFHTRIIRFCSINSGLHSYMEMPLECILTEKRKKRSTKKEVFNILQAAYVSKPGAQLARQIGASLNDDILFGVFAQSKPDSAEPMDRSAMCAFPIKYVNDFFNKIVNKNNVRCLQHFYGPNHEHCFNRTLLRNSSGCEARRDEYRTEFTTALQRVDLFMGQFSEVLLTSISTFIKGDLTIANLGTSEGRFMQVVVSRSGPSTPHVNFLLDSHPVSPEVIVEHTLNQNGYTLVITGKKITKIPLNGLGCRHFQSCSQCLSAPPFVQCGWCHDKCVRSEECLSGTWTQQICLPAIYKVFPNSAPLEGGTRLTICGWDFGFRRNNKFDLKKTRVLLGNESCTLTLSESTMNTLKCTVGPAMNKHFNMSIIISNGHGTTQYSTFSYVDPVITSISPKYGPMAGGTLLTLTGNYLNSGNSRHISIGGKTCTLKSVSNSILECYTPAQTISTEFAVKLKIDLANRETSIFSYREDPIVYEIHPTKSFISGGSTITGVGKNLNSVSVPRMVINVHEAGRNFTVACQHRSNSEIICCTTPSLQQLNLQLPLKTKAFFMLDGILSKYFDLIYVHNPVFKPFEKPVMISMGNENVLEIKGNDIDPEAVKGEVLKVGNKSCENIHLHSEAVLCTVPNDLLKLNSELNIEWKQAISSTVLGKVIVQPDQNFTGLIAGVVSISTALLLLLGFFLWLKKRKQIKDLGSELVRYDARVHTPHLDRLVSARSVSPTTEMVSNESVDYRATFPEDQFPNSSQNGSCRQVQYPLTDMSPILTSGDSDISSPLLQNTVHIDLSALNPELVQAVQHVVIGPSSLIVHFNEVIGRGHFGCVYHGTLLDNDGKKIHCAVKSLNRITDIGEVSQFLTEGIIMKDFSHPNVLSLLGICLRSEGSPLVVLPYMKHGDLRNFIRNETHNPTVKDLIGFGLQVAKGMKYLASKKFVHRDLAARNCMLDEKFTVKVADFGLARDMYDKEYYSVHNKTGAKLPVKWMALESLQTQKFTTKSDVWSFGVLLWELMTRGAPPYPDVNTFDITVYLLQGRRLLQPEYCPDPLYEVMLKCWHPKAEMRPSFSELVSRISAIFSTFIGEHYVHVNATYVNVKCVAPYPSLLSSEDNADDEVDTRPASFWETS
Sequence of Phosphorylase b kinase gamma catalytic chain, liver/testis isoform (P15735 whole entry, canonical isoform): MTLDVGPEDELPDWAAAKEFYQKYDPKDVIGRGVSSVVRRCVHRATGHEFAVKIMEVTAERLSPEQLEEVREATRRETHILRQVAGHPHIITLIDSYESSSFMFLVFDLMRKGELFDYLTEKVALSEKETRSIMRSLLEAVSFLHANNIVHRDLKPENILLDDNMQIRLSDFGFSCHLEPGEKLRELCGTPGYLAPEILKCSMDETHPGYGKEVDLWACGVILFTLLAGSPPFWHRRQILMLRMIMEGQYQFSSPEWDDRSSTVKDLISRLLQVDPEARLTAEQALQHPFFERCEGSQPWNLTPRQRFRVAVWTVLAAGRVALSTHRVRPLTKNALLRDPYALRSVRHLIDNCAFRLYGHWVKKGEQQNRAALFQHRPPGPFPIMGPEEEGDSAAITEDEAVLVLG
Sequence of Cyclin-dependent kinase 9 (P50750 whole entry): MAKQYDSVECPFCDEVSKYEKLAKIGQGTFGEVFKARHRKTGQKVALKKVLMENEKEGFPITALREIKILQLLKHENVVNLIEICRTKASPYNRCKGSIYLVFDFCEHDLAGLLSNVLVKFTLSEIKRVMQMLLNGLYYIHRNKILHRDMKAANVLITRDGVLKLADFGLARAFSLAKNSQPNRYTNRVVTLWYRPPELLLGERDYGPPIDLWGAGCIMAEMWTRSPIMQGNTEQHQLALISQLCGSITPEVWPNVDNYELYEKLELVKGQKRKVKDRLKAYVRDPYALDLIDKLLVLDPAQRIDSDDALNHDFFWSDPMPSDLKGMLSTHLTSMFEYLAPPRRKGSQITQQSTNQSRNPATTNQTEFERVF

For `NC1CCCCC1Nc1nccc(-c2c[nH]c3ncccc23)n1` (configuration not stated), which Ki [1] is on record?
The Ki was 158 nM (active).

What about the Ki [2] of the same molecule?
The Ki was > 7940 nM (inactive).

What about the Ki [3] of the same molecule?
Its Ki is 794 nM (active).

And the Ki [4]?
Its Ki is 200 nM (active).

And the Ki [5]?
Its Ki is 251 nM (active).

What about the Ki [6] of the same molecule?
Its Ki is 501 nM (active).

And the Ki [7]?
Its Ki is 794 nM (active).

What about the Ki [8] of the same molecule?
The Ki was > 2510 nM (inactive).

And the Ki (SRSF protein kinase 1)?
Its Ki is 1260 nM (active).

What about the Ki [9] of the same molecule?
Its Ki is > 3160 nM (inactive).

And the Ki [10]?
Its Ki is > 1260 nM (inactive).

What about the Ki [11] of the same molecule?
The Ki was 100 nM (active).

What about the Ki [12] of the same molecule?
Its Ki is 39.8 nM (active).

What about the Ki [13] of the same molecule?
The Ki was > 5010 nM (inactive).

And the Ki [14]?
The Ki was 251 nM (active).

And the Ki [15]?
Its Ki is 3980 nM (active).

And the Ki [16]?
Its Ki is 25.1 nM (active).

And the Ki [17]?
The Ki was 631 nM (active).

What about the Ki [18] of the same molecule?
Its Ki is 501 nM (active).

And the Ki [19]?
Its Ki is > 2000 nM (inactive).

What about the Ki [20] of the same molecule?
The Ki was 251 nM (active).

And the Ki [21]?
The Ki was > 1580 nM (inactive).

What about the Ki [22] of the same molecule?
Its Ki is 158 nM (active).

And the Ki [23]?
The Ki was 79.4 nM (active).

And the Ki [24]?
The Ki was > 3160 nM (inactive).

And the Ki [25]?
The Ki was > 1580 nM (inactive).

What about the Ki [26] of the same molecule?
The Ki was 316 nM (active).

And the Ki (Ephrin type-A receptor 2)?
Its Ki is > 3160 nM (inactive).

What about the Ki [27] of the same molecule?
Its Ki is > 2000 nM (inactive).

What about the Ki (Misshapen-like kinase 1) of the same molecule?
The Ki was 126 nM (active).

And the Ki [28]?
Its Ki is 3160 nM (active).

And the Ki [29]?
The Ki was 200 nM (active).

And the Ki [30]?
Its Ki is 31.6 nM (active).

What about the Ki (Aurora kinase B) of the same molecule?
Its Ki is 1260 nM (active).

And the Ki [31]?
Its Ki is 5.01 nM (active).

And the Ki [32]?
The Ki was 631 nM (active).

What about the Ki [33] of the same molecule?
Its Ki is 251 nM (active).

And the Ki [34]?
The Ki was 5.01 nM (active).

What about the Ki [35] of the same molecule?
Its Ki is > 794 nM (inactive).

What about the Ki [36] of the same molecule?
Its Ki is 1000 nM (active).

What about the Ki [37] of the same molecule?
Its Ki is > 7940 nM (inactive).

And the Ki [38]?
The Ki was 31.6 nM (active).

What about the Ki [39] of the same molecule?
Its Ki is 25.1 nM (active).

And the Ki [40]?
Its Ki is 6.31 nM (active).

And the Ki [41]?
Its Ki is 31.6 nM (active).

And the Ki [42]?
The Ki was 63.1 nM (active).

What about the Ki [43] of the same molecule?
Its Ki is 7.94 nM (active).
